The target in assay [1] is Epidermal growth factor receptor (Homo sapiens, UniProt P00533, C797S/EX18DEL/T790M). In words: Inhibition of EGFR del18/T790M/C797S triple mutant (unknown origin) using TK as substrate incubated for 120 mins in the presence of ATP by HTRF assay. A general note: Time-resolved FRET reads energy transfer from a long-lived donor to a nearby acceptor.
Assay [2] has as its target Epidermal growth factor receptor (Homo sapiens, UniProt P00533, C797S/L858R/T790M). The assay can be described thus: Inhibition of EGFR L858R/T790M/C797S triple mutant (unknown origin) using TK as substrate incubated for 120 mins in the presence of ATP by HTRF assay.
Another assay has as its system A-431. The assay can be described thus: Antiproliferative activity against human A-431 cells assessed as cell growth inhibition incubated for 72 hrs by cell titre glo luminescence assay. It counts as functional, cell-based. The note with it: A-431, 72 h.
The target in assay [3] is Epidermal growth factor receptor (Homo sapiens, UniProt P00533). The assay can be described thus: Inhibition of wild type EGFR (unknown origin) using TK as substrate incubated for 120 mins in the presence of ATP by HTRF assay.
Another assay has as its system BaF3. The assay can be described thus: Antiproliferative activity against mouse BaF3 cells harboring del18/T790M/C797S triple mutant assessed as cell growth inhibition incubated for 72 hrs by cell titre glo luminescence assay. In kind it is functional, cell-based. The note with it: BaF3, 72 h.

Each structure is given as a SMILES string.

Sequence of Epidermal growth factor receptor (Homo sapiens, UniProt P00533, C797S/EX18DEL/T790M) (P00533 whole entry, looked up, stated change not applied): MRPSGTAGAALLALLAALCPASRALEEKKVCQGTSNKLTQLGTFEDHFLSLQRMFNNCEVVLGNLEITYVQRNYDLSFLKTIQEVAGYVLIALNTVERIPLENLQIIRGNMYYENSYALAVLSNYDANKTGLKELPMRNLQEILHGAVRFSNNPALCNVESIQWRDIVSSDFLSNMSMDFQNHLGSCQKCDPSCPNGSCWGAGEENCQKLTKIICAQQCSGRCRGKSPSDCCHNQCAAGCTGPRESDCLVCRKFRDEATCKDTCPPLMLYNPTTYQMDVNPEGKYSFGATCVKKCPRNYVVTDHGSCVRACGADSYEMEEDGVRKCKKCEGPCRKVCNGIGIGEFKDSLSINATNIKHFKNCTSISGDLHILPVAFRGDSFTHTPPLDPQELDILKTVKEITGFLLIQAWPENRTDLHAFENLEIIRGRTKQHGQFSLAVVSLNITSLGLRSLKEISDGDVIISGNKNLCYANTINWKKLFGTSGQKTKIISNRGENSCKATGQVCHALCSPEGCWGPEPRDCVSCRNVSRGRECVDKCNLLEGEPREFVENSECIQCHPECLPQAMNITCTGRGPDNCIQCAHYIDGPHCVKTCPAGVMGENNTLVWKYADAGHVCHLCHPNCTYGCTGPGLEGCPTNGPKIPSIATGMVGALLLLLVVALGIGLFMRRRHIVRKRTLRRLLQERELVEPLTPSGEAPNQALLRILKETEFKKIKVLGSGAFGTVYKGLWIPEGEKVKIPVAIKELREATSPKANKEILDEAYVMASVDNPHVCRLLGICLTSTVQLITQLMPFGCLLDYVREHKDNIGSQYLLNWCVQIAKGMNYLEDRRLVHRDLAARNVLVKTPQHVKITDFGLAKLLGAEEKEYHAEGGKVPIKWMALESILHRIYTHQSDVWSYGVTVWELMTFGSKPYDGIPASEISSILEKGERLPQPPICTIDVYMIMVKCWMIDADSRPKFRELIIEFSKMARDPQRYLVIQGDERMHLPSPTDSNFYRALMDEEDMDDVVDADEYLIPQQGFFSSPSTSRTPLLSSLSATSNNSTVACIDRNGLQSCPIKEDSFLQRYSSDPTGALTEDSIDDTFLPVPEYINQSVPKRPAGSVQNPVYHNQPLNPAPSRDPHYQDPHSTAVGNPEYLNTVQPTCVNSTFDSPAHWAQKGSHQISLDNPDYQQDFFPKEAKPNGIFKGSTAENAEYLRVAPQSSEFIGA
Sequence of Epidermal growth factor receptor (Homo sapiens, UniProt P00533) (P00533 whole entry): as the sequence (P00533 whole entry, looked up, stated change not applied) above
Sequence of Epidermal growth factor receptor (Homo sapiens, UniProt P00533, C797S/L858R/T790M) (P00533 25-1210 T790M/C797S/L858R limits assumed): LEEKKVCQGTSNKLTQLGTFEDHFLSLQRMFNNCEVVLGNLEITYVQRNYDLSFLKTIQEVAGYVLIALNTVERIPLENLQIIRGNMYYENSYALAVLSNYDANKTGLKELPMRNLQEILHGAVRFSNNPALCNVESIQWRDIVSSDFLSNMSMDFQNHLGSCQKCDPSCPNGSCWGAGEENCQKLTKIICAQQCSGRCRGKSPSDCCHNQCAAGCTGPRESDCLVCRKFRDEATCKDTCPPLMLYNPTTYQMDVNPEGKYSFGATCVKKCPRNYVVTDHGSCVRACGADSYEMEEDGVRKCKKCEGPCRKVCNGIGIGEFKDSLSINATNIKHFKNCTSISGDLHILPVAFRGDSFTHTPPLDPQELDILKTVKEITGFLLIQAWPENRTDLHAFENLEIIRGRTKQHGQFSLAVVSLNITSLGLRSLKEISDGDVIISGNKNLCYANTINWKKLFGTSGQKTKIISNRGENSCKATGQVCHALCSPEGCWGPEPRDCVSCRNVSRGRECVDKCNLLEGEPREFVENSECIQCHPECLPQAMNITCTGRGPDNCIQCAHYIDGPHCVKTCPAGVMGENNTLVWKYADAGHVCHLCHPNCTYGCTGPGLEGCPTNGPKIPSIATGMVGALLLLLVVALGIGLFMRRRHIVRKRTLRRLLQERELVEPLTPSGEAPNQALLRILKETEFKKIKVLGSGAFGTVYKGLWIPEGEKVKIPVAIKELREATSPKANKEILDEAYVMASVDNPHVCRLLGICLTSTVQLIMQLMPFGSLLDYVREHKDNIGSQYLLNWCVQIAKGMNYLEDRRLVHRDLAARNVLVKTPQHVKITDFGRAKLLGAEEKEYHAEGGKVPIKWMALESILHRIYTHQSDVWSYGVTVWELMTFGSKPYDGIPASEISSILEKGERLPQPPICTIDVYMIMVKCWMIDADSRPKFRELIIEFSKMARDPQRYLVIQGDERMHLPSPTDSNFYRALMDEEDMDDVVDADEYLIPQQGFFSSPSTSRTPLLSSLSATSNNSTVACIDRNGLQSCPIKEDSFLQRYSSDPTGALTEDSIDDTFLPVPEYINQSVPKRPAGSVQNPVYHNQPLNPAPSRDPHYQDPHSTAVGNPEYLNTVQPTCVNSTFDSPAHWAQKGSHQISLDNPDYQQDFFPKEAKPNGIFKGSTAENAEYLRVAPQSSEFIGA

The term IC50 denotes the concentration that gives 50% inhibition. Turning to `CCOC1CN(C2CCN(c3cc(OC)c(Nc4ncc(Br)c(Nc5ccc6ncnn6c5P(C)(C)=O)n4)cc3CC)CC2)C1`, the IC50 is 0.9 nM in assay [1]; 0.67 nM in assay [2]; 1010 nM in the assay on A-431; more than 500 nM in assay [3]; 44 nM with BaF3.
As for `CCc1cc(Nc2ncc(Br)c(Nc3ccc4c(c3P(C)(C)=O)OCCO4)n2)c(OC)cc1N1CCC(N2CC(CC#N)C2)CC1`, the IC50 was determined as 0.49 nM in assay [1], 0.41 nM in assay [2], 416 nM in assay [3] and 7 nM in the assay with BaF3.
In the case of `CCc1cc(Nc2ncc(Br)c(Nc3ccc4ncnn4c3P(C)(C)=O)n2)c(OC)cc1N1CCC(N2CC(COC)C2)CC1`, the IC50 in assay [1] was 0.1 nM; in assay [2], 0.84 nM; in the assay with A-431, 702 nM; in assay [3], more than 500 nM; in the assay on BaF3 it was 37 nM.
In the case of `COc1cc(N2CCC(N3CCCOCC3)CC2)c(C)cc1Nc1ncc(Br)c(Nc2ccc3c(c2P(C)(C)=O)OCCO3)n1`, the IC50 in assay [1] came to 0.13 nM; in assay [2], 0.19 nM; in the assay on BaF3 it was 20 nM.
Take `CCc1cc(Nc2ncc(Br)c(Nc3ccc4c(c3P(C)(C)=O)OCCO4)n2)c(OC)cc1N1CCC(N2CC(COC)C2)CC1`: the IC50 in assay [1] was found to be 0.15 nM; in assay [2] it was 0.12 nM; in the assay with BaF3, 12 nM.
With `CCc1cc(Nc2ncc(Br)c(Nc3ccc4nccnc4c3P(C)(C)=O)n2)c(OC)cc1N1CCC(N2CCCN(C)CC2)CC1`, the IC50 was found to be 0.83 nM in assay [1]; 0.27 nM in assay [2]; 490 nM in the assay on A-431; 3000 nM in assay [3]; 9 nM in the assay on BaF3.
As to `COc1cc(N2CCC(N3CC[C@H](N(C)C)C3)CC2)c(C)cc1Nc1ncc(Br)c(Nc2ccc3c(c2P(C)(C)=O)OCCO3)n1`, the IC50 in assay [1] is 0.12 nM; in assay [2], 0.15 nM; with BaF3, 28 nM.
Regarding `CCc1cc(Nc2ncc(Br)c(Nc3ccn4ncnc4c3P(C)(C)=O)n2)c(OC)cc1N1CCC(N2CCN(CC)CC2)CC1`, the IC50 in assay [1] was 0.1 nM; in assay [2] it was 0.67 nM; in the assay on A-431 it was 731 nM; in assay [3] it was more than 500 nM; in the assay with BaF3 it was 34 nM.
Take `CCc1cc(Nc2ncc(Br)c(Nc3ccn4ncnc4c3P(C)(C)=O)n2)c(OC)cc1N1CCC(N2CCOCC2)CC1`: the IC50 in assay [1] was 0.18 nM; in assay [2] it was 0.93 nM; in the assay with A-431, 1300 nM; in assay [3], more than 500 nM; with BaF3, 40 nM.
As for `COc1cc(N2CCC(N3CC(N(C)C)C3)CC2)c(C)cc1Nc1ncc(Br)c(Nc2ccc3nccnc3c2P(C)(C)=O)n1`, the IC50 is 0.06 nM in assay [1], 0.09 nM in assay [2] and 13 nM with BaF3.
As for `CCOC1CN(C2CCN(c3cc(OC)c(Nc4ncc(Br)c(Nc5ccc6nccnc6c5P(C)(C)=O)n4)cc3C)CC2)C1`, the IC50 in assay [1] came to 0.65 nM; in assay [2], 0.43 nM; in the assay with A-431 it was 422 nM; in assay [3] it was 652 nM; with BaF3, 29 nM.
Regarding `COc1cc(N2CCC(N3CCCN(C)CC3)CC2)c(C)cc1Nc1ncc(Br)c(Nc2ccc3c(c2P(C)(C)=O)OCCO3)n1`, the IC50 stood at 0.05 nM in assay [1], 0.1 nM in assay [2] and 24 nM in the assay with BaF3.
On to `CCN(C)C1CN(C2CCN(c3cc(OC)c(Nc4ncc(Br)c(Nc5ccc6c(c5P(C)(C)=O)OCCO6)n4)cc3C)CC2)C1`, for which the results for the IC50 (in assay [2]; in assay [3]; with BaF3) were 0.28 nM, more than 500 nM and 35 nM, respectively.

(Values after ChEMBL document CHEMBL5113487, “Novel anilinopyrimidine derivatives as potential EGFRT790M/C797S Inhibitors: Design, Synthesis, biological activity study” (Bioorg Med Chem, 2022).)
